Data: patent US20210395313A1, “PEPTIDE PAC1 ANTAGONISTS” (AMGEN INC., priority 2017, published 2021)
Where a SMILES comes first, the peptide text is derived from it. Bridges are numbered along the chain shown (N, C = ends). Where no end group is shown, it is not given here.

Legend:
PAC1 = biological target: T1, PAC1 (Rattus norvegicus, UniProt P32215); assay: Rat maxadilan-induced increase in blood flow (MIIBF) PD model, laser Doppler imaging; assay type: in vivo; conditions: for inhibition of MIIBF (dermal blood flow): single bolus i.v., lowest dose of 0.1 mg/kg, 5 min prior to maxadilan, 35 min post peptide treatment; for inhibition of maxadilan-induced increase in DBF: single bolus s.c., lowest dose of 0.3 mg/kg, 15 min prior to maxadilan, 45 min post peptide treatment
T1 construct: Naive male Sprague Dawley® rats aged 8-12 weeks at the time of the study were purchased from Charles River Laboratories; tissue Charles River Laboratories; host or cells: live male Sprague Dawley rats; dermal blood flow on abdominal skin
T1 sequence (P32215 20-523): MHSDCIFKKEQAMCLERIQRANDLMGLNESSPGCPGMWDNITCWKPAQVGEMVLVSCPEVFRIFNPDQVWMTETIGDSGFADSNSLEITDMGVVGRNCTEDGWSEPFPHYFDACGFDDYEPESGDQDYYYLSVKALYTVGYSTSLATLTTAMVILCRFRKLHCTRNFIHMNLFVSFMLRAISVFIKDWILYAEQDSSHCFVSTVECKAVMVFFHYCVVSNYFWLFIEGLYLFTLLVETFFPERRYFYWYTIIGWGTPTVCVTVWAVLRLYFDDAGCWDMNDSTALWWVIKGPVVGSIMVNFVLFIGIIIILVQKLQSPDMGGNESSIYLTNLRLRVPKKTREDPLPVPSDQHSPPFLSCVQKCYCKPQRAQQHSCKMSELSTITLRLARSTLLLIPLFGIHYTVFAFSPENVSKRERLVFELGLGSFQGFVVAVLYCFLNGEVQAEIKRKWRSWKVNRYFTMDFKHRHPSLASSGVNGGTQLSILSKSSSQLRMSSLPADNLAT
Description: PAC1 peptide antagonists were also evaluated in an in vivo pharmacodynamic model—a model of maxadilan-induced increase in blood flow.
Naive male Sprague Dawley® rats aged 8-12 weeks at the time of the study were purchased from Charles River Laboratories. Animals were group-housed in non-sterile, ventilated micro-isolator housing in Amgen Assessment and Accreditation of Laboratory Animal Committee (AAALAC)-accredited facility. Animals had ad libitum access to pelleted feed (Harlan Teklad 2020X, Indianapolis, IN) and water (on-site generated reverse osmosis) via automatic watering system.
All PAC1 peptides were tested in a rat maxadilan-induced increase in blood flow (MIIBF) pharmacodynamic (PD) model with a laser Doppler imaging. A dosing solution of maxadilan (Bachem, H6734.0500) was prepared fresh daily by diluted maxadilan stock solution (0.5 mg/mL) in 1× PBS to the final concentration of 0.5 μg/mL. All tested peptides were prepared in 1× PBS at different concentrations depend on the dose required for the experiment and given in a single bolus i.v. or s.c. injection. A laser Doppler imager (LDI-2, Moor Instruments, Ltd, Wilmington, Del.) was used to measure dermal blood flow (DBF) on the shaved skin of the rat abdomen with a low-power laser beam generated by a 633 nm helium-neon bulb. The measurement resolution was 0.2 to 2 mm, with scanning distances between the instrument aperture and the tissue surface of 30 cm. In this report, DBF was measured and expressed as % change from baseline [100×(individual post-CAP flux-individual baseline flux)/individual baseline flux] and further calculated to % Inhibition to quantify the magnitude of drug effect [Mean of vehicle % change from BL−individual drug treated rat % change from BL)/Mean of vehicle % change from BL].
On the test day, following anesthetization with propofol, the rat's abdominal area was shaved and each animal was placed in a supine position on a temperature-controlled circulating warm-water pad to maintain a stable body temperature during the study. After a 10 to 15 minute stabilization period, a rubber O-ring (0.925 cm inner diameter, O-Rings West, Seattle, Wash.) was placed on the rat abdomen without directly positioning it over a visible blood vessel while the rat placed in a supine position on a temperature-controlled circulating warm-water pad to maintain a stable body temperature during the study. After placement of an O-ring on the selected area, a baseline (BL) DBF measurement was taken. After the BL scan, PAC1 peptides were administrated either 5 min for i.v., or 15 min for s.c. then followed by 20 μL (in 0.5 μg/mL) intradermal injection of maxadilan at the center of the O-ring. The post-maxadilan DBF was measured at 30 min and the post peptides time was 35 min for i.v. and 45 min for s.c. respectively. The O-ring serves as an area of interest in which the DBF will be analyzed within the O-ring.
All DBF results were expressed as the mean±SEM. A one-way ANOVA followed by Dunnett's Multiple Comparison Test (MCT) was used to assess the statistical significance of PAC1 peptides effects relative to the vehicle within the study. A p<0.05 was used to determine significance between any two groups.

human PAC1 receptor = biological target: T2, human PAC1 receptor (Homo sapiens, UniProt P41586); assay: LANCE Ultra cAMP accumulation antagonist assay in SHSY-5Y cells; assay type: cell-based;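 note: inhibition of cAMP accumulation evoked by PAC1 agonist at its EC80 in SHSY-5Y cells endogenously expressing receptor, 30 min preincubation then 15 min agonist, TR-FRET readout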
T2 construct: SHSY-5Y (human neuroblastoma cell line) and RG-2 (rat glioma cell line) cells endogenously express human and rat PAC1 receptors, respectively; endogenous in cells; host or cells: SHSY-5Y human neuroblastoma cells
T2 sequence (P41586 21-468): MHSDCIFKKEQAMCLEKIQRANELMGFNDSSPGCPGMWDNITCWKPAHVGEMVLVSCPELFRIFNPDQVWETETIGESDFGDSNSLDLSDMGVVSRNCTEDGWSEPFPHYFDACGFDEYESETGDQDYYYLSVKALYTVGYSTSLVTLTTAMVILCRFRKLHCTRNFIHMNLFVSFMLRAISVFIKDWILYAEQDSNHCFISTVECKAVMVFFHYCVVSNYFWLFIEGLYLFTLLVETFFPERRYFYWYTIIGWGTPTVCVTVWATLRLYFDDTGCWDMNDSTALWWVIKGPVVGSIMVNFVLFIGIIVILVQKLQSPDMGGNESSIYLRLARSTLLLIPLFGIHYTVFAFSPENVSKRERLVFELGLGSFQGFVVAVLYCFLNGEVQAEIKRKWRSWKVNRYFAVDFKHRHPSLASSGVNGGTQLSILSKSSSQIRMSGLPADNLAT

rat PAC1 receptor = biological target: T3, rat PAC1 receptor (Rattus norvegicus, UniProt P32215); assay: LANCE Ultra cAMP accumulation antagonist assay in RG-2 cells; assay type: cell-based;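 note: RG-2 rat glioma cells endogenously expressing PAC1, test peptide preincubated 30 min, then PAC1 agonist added at its EC80 for 15 min, cAMP accumulation read by LANCE Ultra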
T3 construct: SHSY-5Y (human neuroblastoma cell line) and RG-2 (rat glioma cell line) cells endogenously express human and rat PAC1 receptors, respectively; endogenous in cells; host or cells: RG-2 rat glioma cells
T3 sequence (P32215 20-523): T1 sequence (P32215 20-523)

Row | Molecule | inhibition of MIIBF (dermal blood flow) (PAC1) | inhibition of maxadilan-induced increase in DBF (PAC1) | IC50 (human PAC1 receptor) [nM] | IC50 (rat PAC1 receptor) [nM]
1 | CDATCQFRKAIDDCAKQAHHSNVPGSVFKACMKQKKKEFKAG-NH2 (disulfide 1-5, 14-31) [SEQ ID NO 180] | statistically significant inhibition | statistically significant inhibition | 0.01 to 1 | 0.01 to 1
2 | CDATCQFRKAIDDCVKQAHHSNVPGSVFKACMKQKKKEFKAG-NH2 (disulfide 1-5, 14-31) [SEQ ID NO 179] | statistically significant inhibition | – | 0.01 to 1 | 0.01 to 1
3 | CDATCQFRKAIDDCDRQAHHSNVPGSVFKACMKQKKKEWKAG-NH2 (disulfide 1-5, 14-31) [SEQ ID NO 163] | – | statistically significant inhibition | 0.01 to 1 | 0.01 to 1
4 | CC[C@H](C)[C@H](NC(=O)[C@H](C)NC(=O)[C@H](CCCCN)NC(=O)[C@H](CCCNC(=N)N)NC(=O)[C@H](Cc1ccccc1)NC(=O)[C@H](CCC(N)=O)NC(=O)[C@@H]1CSSC[C@H](N)C(=O)N[C@@H](CC(=O)O)C(=O)N[C@@H](C)C(=O)N[C@@H]([C@@H](C)O)C(=O)N1)C(=O)N[C@@H](CC(=O)O)C(=O)N[C@@H](CC(=O)O)C(=O)N[C@H]1CSSC[C@@H](C(=O)N[C@@H](CCSC)C(=O)N[C@@H](CCCCN)C(=O)N[C@@H](CCC(N)=O)C(=O)N[C@@H](CCCCN)C(=O)N[C@@H](CCCCN)C(=O)N[C@@H](CCCCN)C(=O)N[C@@H](CCC(=O)O)C(=O)N[C@@H](Cc2ccccc2)C(=O)N[C@@H](CCCCN)C(=O)N[C@@H](C)C(N)=O)NC(=O)C(C)(C)NC(=O)[C@H](CCCCN)NC(=O)[C@H](Cc2ccccc2)NC(=O)[C@H](C(C)C)NC(=O)[C@H](CO)NC(=O)CNC(=O)[C@@H]2CCCN2C(=O)[C@H](C(C)C)NC(=O)[C@H](CC(N)=O)NC(=O)[C@H](CO)NC(=O)[C@H](Cc2c[nH]cn2)NC(=O)[C@H](Cc2c[nH]cn2)NC(=O)[C@H](C)NC(=O)[C@H](CCC(N)=O)NC(=O)[C@H](CCCCN)NC(=O)[C@H](CCC(N)=O)NC1=O [SEQ ID NO 250] | statistically significant inhibition | – | 1 to 100 | 0.01 to 1
5 | SCDATCQFRKAIDDCQKQAHHSNVPGSVFKACMKQKKKEFKAG-NH2 (disulfide 2-6, 15-32) [SEQ ID NO 183] | statistically significant inhibition | – | 1 to 100 | 0.01 to 1
6 | CC[C@H](C)[C@H](NC(=O)[C@H](C)NC(=O)[C@H](CCCCN)NC(=O)[C@H](CCCNC(=N)N)NC(=O)[C@H](Cc1ccccc1)NC(=O)[C@H](CCC(N)=O)NC(=O)[C@@H]1CSSC[C@H](N)C(=O)N[C@@H](CC(=O)O)C(=O)N[C@@H](C)C(=O)N[C@@H]([C@@H](C)O)C(=O)N1)C(=O)N[C@@H](CC(=O)O)C(=O)N[C@@H](CC(=O)O)C(=O)N[C@H]1CSSC[C@@H](C(=O)N[C@@H](CCSC)C(=O)N[C@@H](CCCCN)C(=O)N[C@@H](CCC(N)=O)C(=O)N[C@@H](CCCCN)C(=O)N[C@@H](CCCCN)C(=O)N[C@@H](CCCCN)C(=O)N[C@@H](CCC(=O)O)C(=O)N[C@@H](Cc2c[nH]c3ccccc23)C(=O)N[C@@H](CCCCN)C(=O)N[C@@H](C)C(=O)NCC(N)=O)NC(=O)[C@H](C)NC(=O)[C@H](CCCCN)NC(=O)[C@H](Cc2ccccc2)NC(=O)[C@H](C(C)C)NC(=O)[C@H](CO)NC(=O)[C@H](CO)NC(=O)[C@H](Cc2c[nH]cn2)NC(=O)[C@H](Cc2ccc(O)cc2)NC(=O)[C@H](C)NC(=O)[C@H](CCC(N)=O)NC(=O)[C@H](CCCNC(=N)N)NC(=O)[C@H](C)NC1=O [SEQ ID NO 65] (H-CDATCQFRKAIDDCARQAYHSSVFKACMKQKKKEWKAG-NH2; disulfide 1-5, 14-27) | – | statistically significant inhibition | 0.01 to 1 | 0.01 to 1
7 | GCDATCQFRKAIDDCQKQAHHSNVPGSVFKACMKQKKKEFKAG-NH2 (disulfide 2-6, 15-32) [SEQ ID NO 181] | statistically significant inhibition | – | 1 to 100 | 0.01 to 1
8 | CDATCQFRKAIDDCLLRAWHSNVPGSVFKACMKQKKKEFKAG-NH2 (disulfide 1-5, 14-31) [SEQ ID NO 85] | – | statistically significant inhibition | 0.01 to 1 | 0.01 to 1
9 | CC[C@H](C)[C@H](NC(=O)[C@H](C)NC(=O)[C@H](CCCCN)NC(=O)[C@H](CCCNC(=N)N)NC(=O)[C@H](Cc1ccccc1)NC(=O)[C@H](CCC(N)=O)NC(=O)[C@@H]1CSSC[C@H](N)C(=O)N[C@@H](CC(=O)O)C(=O)N[C@@H](C)C(=O)N[C@@H]([C@@H](C)O)C(=O)N1)C(=O)N[C@@H](CC(=O)O)C(=O)N[C@@H](CC(=O)O)C(=O)N[C@H]1CSSC[C@@H](C(=O)N[C@@H](CCSC)C(=O)N[C@@H](CCCCN)C(=O)N[C@@H](CCC(N)=O)C(=O)N[C@@H](CCCCN)C(=O)N[C@@H](CCCCN)C(=O)N[C@@H](CCCCN)C(=O)N[C@@H](CCC(=O)O)C(=O)N[C@@H](Cc2ccccc2)C(=O)N[C@@H](CCCCN)C(=O)N[C@@H](C)C(=O)NCC(=O)N[C@@H](Cc2c[nH]cn2)C(=O)O)NC(=O)[C@H](C)NC(=O)[C@H](CCCCN)NC(=O)[C@H](Cc2ccccc2)NC(=O)[C@H](C(C)C)NC(=O)[C@H](CO)NC(=O)[C@H](CO)NC(=O)[C@H](Cc2c[nH]cn2)NC(=O)[C@H](Cc2c[nH]cn2)NC(=O)[C@H](C)NC(=O)[C@H](CCC(N)=O)NC(=O)[C@H](CCCNC(=N)N)NC(=O)[C@H](C)NC1=O [compound 36] (H-CDATCQFRKAIDDCARQAHHSSVFKACMKQKKKEFKAGH-OH; disulfide 1-5, 14-27) | – | – | 0.01 to 1 | 0.01 to 1
10 | CEATCQFRKAIDDCARQAHHSNVPGSVFKACMKQKKKEWKAGH (disulfide 1-5, 14-31) [compound 11] | – | – | 0.01 to 1 | 0.01 to 1
